In US20250171457A1, “NITROGEN-CONTAINING HETEROCYCLIC COMPOUND HAVING NRF2 ACTIVATION EFFECT” (CHUGAI SEIYAKU KABUSHIKI KAISHA, priority 2022, published 2025):

Tested on: Nrf2 transcriptional activity (pARE-Luc reporter) in HepG2 cells
Experiment: In vitro Nrf2 transcriptional activity measurement by ARE-dependent reporter assay in HepG2 cell
Type: cell-based, human
Settings: HepG2 cells, pARE-Luc reporter, 4 hours; 100% = Example 1-54 or Example 17-23 at 3.75 μM (repeat print of Table 20-1)
In short: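 Luminescence readout (Bright-Glo) after 4 h, 37° C compound exposure of HepG2 cells carrying the ARE-luciferase vector pGL4.37. Each well converted to % response versus reference compound at 3.75 μM, and EC50 derived from dose-response curves.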

| Compound | EC50 |
| --- | --- |
| Cc1nc(N2CC3(C2)OCC(C)(C)CO3)cc(Cl)c1C(=O)N1COc2c(cccc2-c2cc(N3C4CCC3COC4)c(C(=O)O)cc2F)C1 [Compound 19-9, 4-[3-[4-Chloro-6-(7,7-dimethyl-5,9-dioxa-2-azaspiro[3.5]nonan-2-yl)-2-methylpyridine-3-carbonyl]-2,4-dihydro-1,3-benzoxazin-8-yl]-5-fluoro-2-(3-oxa-8-azabicyclo[3.2.1]octan-8-yl)benzoic acid] | 1.4 nM |

Same assay, conditions: Homo sapiens; HepG2 cells transfected with pARE-Luc, 4 hours at 37° C.; luciferase activity of Example 1-54 or Example 17-23 at 3.75 μM defined as 100%

| Compound | EC50 |
| --- | --- |
| CCc1cc(C(=O)N2COc3c(cccc3-c3cc(N4CCOCC4)c(C(=O)O)cc3F)C2)c(Cl)cc1OC [Compound 18-4, 4-[3-(2-Chloro-5-ethyl-4-methoxybenzoyl)-2,4-dihydro-1,3-benzoxazin-8-yl]-5-fluoro-2-morpholin-4-ylbenzoic acid] | 3.7 nM |
| Cn1cc(-c2cc(Cl)c(C(=O)N3COc4c(cccc4-c4ccc(C(=O)O)c(N5CCSCC5)c4)C3)c(Cl)c2)cn1 [Compound 18-5, 4-[3-[2,6-Dichloro-4-(1-methylpyrazol-4-yl)benzoyl]-2,4-dihydro-1,3-benzoxazin-8-yl]-2-thiomorpholin-4-ylbenzoic acid] | 12 nM |
| CN1CCN(c2cc(Cl)c(C(=O)N3COc4c(cccc4-c4cc(N5CCCC5)c(C(=O)O)cc4F)C3)c(Cl)c2)CC1 [Compound 18-6, 4-[3-[2,6-Dichloro-4-(4-methylpiperazin-1-yl)benzoyl]-2,4-dihydro-1,3-benzoxazin-8-yl]-5-fluoro-2-pyrrolidin-1-ylbenzoic acid] | 10 nM |
| COc1cc2c(c(-c3cc(N4C5CCC4COC5)c(C(=O)O)cc3F)c1)OCN(C(=O)c1c(Cl)cc(N3CC(OC)C3)cc1Cl)C2 [Compound 18-7, 4-[3-[2,6-Dichloro-4-(3-methoxyazetidin-1-yl)benzoyl]-6-methoxy-2,4-dihydro-1,3-benzoxazin-8-yl]-5-fluoro-2-(3-oxa-8-azabicyclo[3.2.1]octan-8-yl)benzoic acid] | 17 nM |
| Cn1cc(-c2cc(Cl)c(C(=O)N3CNc4c(cccc4-c4cc(N5CCOCC5)c(C(=O)O)cc4F)C3)c(Cl)c2)cn1 [Compound 18-8, 4-[3-[2,6-Dichloro-4-(1-methylpyrazol-4-yl)benzoyl]-2,4-dihydro-1H-quinazolin-8-yl]-5-fluoro-2-morpholin-4-ylbenzoic acid] | 2.8 nM |
| Cn1cc(-c2cc(Cl)c(C(=O)N3Cc4cccc(-c5cc(N6CCOCC6)c(C(=O)O)cc5F)c4NC3=O)c(Cl)c2)cn1 [Compound 18-9, 4-[3-[2,6-Dichloro-4-(1-methylpyrazol-4-yl)benzoyl]-2-oxo-1,4-dihydroquinazolin-8-yl]-5-fluoro-2-morpholin-4-ylbenzoic acid] | 23 nM |
| O=C(O)c1ccc(-c2cccc3c2OCN(C(=O)c2c(Cl)cc(N4CCC(N5CCOCC5)CC4)cc2Cl)C3)nc1N1CCCCC1 [Compound 18-10, 6-[3-[2,6-Dichloro-4-(4-morpholin-4-ylpiperidin-1-yl)benzoyl]-2,4-dihydro-1,3-benzoxazin-8-yl]-2-piperidin-1-ylpyridine-3-carboxylic acid] | 36 nM |
| Cn1cc(-c2cc(Cl)c(C(=O)N3CCc4c(cccc4-c4ccc(C(=O)O)c(N5CCCCC5)n4)C3)c(Cl)c2)cn1 [Compound 18-11, 6-[2-[2,6-Dichloro-4-(1-methylpyrazol-4-yl)benzoyl]-3,4-dihydro-1H-isoquinolin-5-yl]-2-piperidin-1-ylpyridine-3-carboxylic acid] | 310 nM |
| Cn1cc(-c2cc(Cl)c(C(=O)N3COc4c(ccnc4-c4ccc(C(=O)O)c(N5CCOCC5)c4)C3)c(Cl)c2)cn1 [Compound 18-12, 4-[3-[2,6-Dichloro-4-(1-methylpyrazol-4-yl)benzoyl]-2,4-dihydropyrido[4,3-e][1,3]oxazin-8-yl]-2-morpholin-4-ylbenzoic acid] | 24 nM |
| Cc1cc(N2CC3(C2)OCC(C)(C)CO3)cc(C)c1C(=O)N1COc2c(cccc2-c2cc(N3C4CCC3COC4)c(C(=O)O)cc2F)C1 [Compound 19-2, 4-[3-[4-(7,7-Dimethyl-5,9-dioxa-2-azaspiro[3.5]nonan-2-yl)-2,6-dimethylbenzoyl]-2,4-dihydro-1,3-benzoxazin-8-yl]-5-fluoro-2-(3-oxa-8-azabicyclo[3.2.1]octan-8-yl)benzoic acid] | 1.6 nM |
| C[C@@H]1CN(c2cc(F)c(C(=O)N3COc4c(cccc4-c4cc(N5C6CCC5COC6)c(C(=O)O)cc4F)C3)c(Cl)c2)[C@H](C)CN1C [Compound 19-3, 4-[3-[2-Chloro-6-fluoro-4-[(2R,5R)-2,4,5-trimethylpiperazin-1-yl]benzoyl]-2,4-dihydro-1,3-benzoxazin-8-yl]-5-fluoro-2-(3-oxa-8-azabicyclo[3.2.1]octan-8-yl)benzoic acid] | 1.2 nM |
| Cc1cc(N2C[C@@H](C)N(C)C[C@H]2C)cc(Cl)c1C(=O)N1COc2c(cccc2-c2cc(N3C4CCC3COC4)c(C(=O)O)cc2F)C1 [Compound 19-4, 4-[3-[2-Chloro-6-methyl-4-[(2R,5R)-2,4,5-trimethylpiperazin-1-yl]benzoyl]-2,4-dihydro-1,3-benzoxazin-8-yl]-5-fluoro-2-(3-oxa-8-azabicyclo[3.2.1]octan-8-yl)benzoic acid] | 1.9 nM |
| CC1(C)COC2(CN(c3cc(Cl)c(C(=O)N4COc5c(cccc5-c5cc(N6C7CCC6COC7)c(C(=O)O)cc5F)C4)c(C#N)c3)C2)OC1 [Compound 19-5, 4-[3-[2-Chloro-6-cyano-4-(7,7-dimethyl-5,9-dioxa-2-azaspiro[3.5]nonan-2-yl)benzoyl]-2,4-dihydro-1,3-benzoxazin-8-yl]-5-fluoro-2-(3-oxa-8-azabicyclo[3.2.1]octan-8-yl)benzoic acid] | 2.7 nM |
| C[C@@H]1CN(c2cnc(C(=O)N3COc4c(cccc4-c4cc(N5C6CCC5COC6)c(C(=O)O)cc4F)C3)c(Cl)c2)[C@H](C)CN1C [Compound 19-6, 4-[3-[3-Chloro-5-[(2R,5R)-2,4,5-trimethylpiperazin-1-yl]pyridine-2-carbonyl]-2,4-dihydro-1,3-benzoxazin-8-yl]-5-fluoro-2-(3-oxa-8-azabicyclo[3.2.1]octan-8-yl)benzoic acid] | 6.3 nM |
| C[C@@H]1CN(C)CCN1c1cc(F)c(C(=O)N2COc3c(cccc3-c3cc(N4C5CCC4COC5)c(C(=O)O)cc3F)C2)c(Cl)c1 [Compound 19-7, 4-[3-[2-Chloro-4-[(2R)-2,4-dimethylpiperazin-1-yl]-6-fluorobenzoyl]-2,4-dihydro-1,3-benzoxazin-8-yl]-5-fluoro-2-(3-oxa-8-azabicyclo[3.2.1]octan-8-yl)benzoic acid] | 2.3 nM |
| C[C@@H]1CN(C)CCN1c1ccc(C(=O)N2COc3c(cccc3-c3cc(N4C5CCC4COC5)c(C(=O)O)cc3F)C2)c(Cl)c1 [Compound 19-8, 4-[3-[2-Chloro-4-[(2R)-2,4-dimethylpiperazin-1-yl]benzoyl]-2,4-dihydro-1,3-benzoxazin-8-yl]-5-fluoro-2-(3-oxa-8-azabicyclo[3.2.1]octan-8-yl)benzoic acid] | 3.9 nM |
| CC1(C)COC2(CN(c3cc(F)c(C(=O)N4COc5c(cccc5-c5cc(N6C7CCC6COC7)c(C(=O)O)cc5F)C4)c(Cl)c3)C2)OC1 [Compound 19-10, 4-[3-[2-Chloro-4-(7,7-dimethyl-5,9-dioxa-2-azaspiro[3.5]nonan-2-yl)-6-fluorobenzoyl]-2,4-dihydro-1,3-benzoxazin-8-yl]-5-fluoro-2-(3-oxa-8-azabicyclo[3.2.1]octan-8-yl)benzoic acid] | 2.5 nM |
| CC1(C)COC2(CN(c3ccc(C(=O)N4COc5c(cccc5-c5cc(N6C7CCC6COC7)c(C(=O)O)cc5F)C4)c(Cl)c3)C2)OC1 [Compound 19-11, 4-[3-[2-Chloro-4-(7,7-dimethyl-5,9-dioxa-2-azaspiro[3.5]nonan-2-yl)benzoyl]-2,4-dihydro-1,3-benzoxazin-8-yl]-5-fluoro-2-(3-oxa-8-azabicyclo[3.2.1]octan-8-yl)benzoic acid] | 4.3 nM |
| Cn1nnc2c(N3CC4(C3)OCC(C)(C)CO4)cc(Cl)c(C(=O)N3COc4c(cccc4-c4cc(N5C6CCC5COC6)c(C(=O)O)cc4F)C3)c21 [Compound 19-12, 4-[3-[5-Chloro-7-(7,7-dimethyl-5,9-dioxa-2-azaspiro[3.5]nonan-2-yl)-3-methylbenzotriazole-4-carbonyl]-2,4-dihydro-1,3-benzoxazin-8-yl]-5-fluoro-2-(3-oxa-8-azabicyclo[3.2.1]octan-8-yl)benzoic acid] | 2.5 nM |
| Cn1nc2c(N3CC4(C3)OCC(C)(C)CO4)cc(Cl)c(C(=O)N3COc4c(cccc4-c4cc(N5C6CCC5COC6)c(C(=O)O)cc4F)C3)c2n1 [Compound 19-13, 4-[3-[5-Chloro-7-(7,7-dimethyl-5,9-dioxa-2-azaspiro[3.5]nonan-2-yl)-2-methylbenzotriazole-4-carbonyl]-2,4-dihydro-1,3-benzoxazin-8-yl]-5-fluoro-2-(3-oxa-8-azabicyclo[3.2.1]octan-8-yl)benzoic acid] | 2.1 nM |
| Cn1nnc2c(C(=O)N3COc4c(cccc4-c4cc(N5C6CCC5COC6)c(C(=O)O)cc4F)C3)c(Cl)cc(N3CC4(C3)OCC(C)(C)CO4)c21 [Compound 19-14, 4-[3-[5-Chloro-7-(7,7-dimethyl-5,9-dioxa-2-azaspiro[3.5]nonan-2-yl)-1-methylbenzotriazole-4-carbonyl]-2,4-dihydro-1,3-benzoxazin-8-yl]-5-fluoro-2-(3-oxa-8-azabicyclo[3.2.1]octan-8-yl)benzoic acid] | 4.1 nM |
| COC1CC2(C1)CN(c1cc(Cl)c(C(=O)N3COc4c(cccc4-c4cc(N5C6CCC5COC6)c(C(=O)O)cc4F)C3)c3c1nc(C)n3C)C2 [Compound 19-15, 4-[3-[5-Chloro-7-(6-methoxy-2-azaspiro[3.3]heptan-2-yl)-2,3-dimethylbenzimidazole-4-carbonyl]-2,4-dihydro-1,3-benzoxazin-8-yl]-5-fluoro-2-(3-oxa-8-azabicyclo[3.2.1]octan-8-yl)benzoic acid] | 2.3 nM |
